Laboratory results as given in paper PMC6364417, “Kinase inhibitor library screening identifies synergistic drug combinations effective in sensitive and resistant melanoma cells” (Journal of Experimental & Clinical Cancer Research : CR, 2019).

Legend:
Test in all cases: Kinase inhibitor library screening, PrestoBlue cell viability, 1 or 10 μM, 72 h
501Mel cells (parental) = system: 501Mel cells (parental)
Procedure: (§1) After 72 h of treatment, cell viability was assessed using the PrestoBlue Cell Viability Reagent (ThermoFisher Scientific). Measurements were performed with the CLARIOstar Monochromator microplate reader (BMG Labtech).
(§2) Kinase inhibitor library screening. […] Each cell line was treated in its sensitive form (parental), and also as 2 resistant derivatives, which were made resistant to either Vemurafenib (XP) or Dabrafenib (GP). Drugs were added at 2 different concentrations, 1 and 10 μM, for 72 h and cell viability was assessed using the PrestoBlue Cell Viability assay. Results are depicted as % viability compared to untreated cells. Each cell line was analyzed at least in duplicate. […] (XLSX 95 kb)

[1] = system: 501Mel-GP cells (Dabrafenib-resistant)
Procedure: as §1, §2

[2] = system: 501Mel-XP cells (Vemurafenib-resistant)
Procedure: as §1, §2

A375 cells (parental) = system: A375 cells (parental)
Procedure: as §1, §2

[3] = system: A375-GP cells (Dabrafenib-resistant)
Procedure: as §1, §2

[4] = system: A375-XP cells (Vemurafenib-resistant)
Procedure: as §1, §2

IGR37 cells (parental) = system: IGR37 cells (parental)
Procedure: as §1, §2

[5] = system: IGR37-GP cells (Dabrafenib-resistant)
Procedure: as §1, §2

[6] = system: IGR37-XP cells (Vemurafenib-resistant)
Procedure: as §1, §2

[7] = 501Mel Parental, 1μΜ, 72 h, in %
[8] = 501Mel Parental, 10μΜ, 72 h, in %
[9] = IGR37 Parental, 1μΜ, 72 h, in %
[10] = IGR37 Parental, 10μΜ, 72 h, in %

SMILES	Cell viability in kinase inhibitor library screening, 501Mel Parental, 1μΜ (501Mel cells (parental); [7])	Cell viability in kinase inhibitor library screening, 501Mel Parental, 10μΜ (501Mel cells (parental); [8])	Cell viability in kinase inhibitor library screening, 501Mel GP, 1μΜ ([1]; 501Mel GP, 1μΜ, 72 h, in %)	Cell viability in kinase inhibitor library screening, 501Mel GP, 10μΜ ([1]; 501Mel GP, 10μΜ, 72 h, in %)	Cell viability in kinase inhibitor library screening, 501Mel XP, 1μΜ ([2]; 501Mel XP, 1μΜ, 72 h, in %)	Cell viability in kinase inhibitor library screening, 501Mel XP, 10μΜ ([2]; 501Mel XP, 10μΜ, 72 h, in %)	Cell viability in kinase inhibitor library screening, A375 Parental, 10μΜ (A375 cells (parental); A375 Parental, 10μΜ, 72 h)	Cell viability in kinase inhibitor library screening, A375 Parental, 1μΜ (A375 cells (parental); A375 Parental, 1μΜ, 72 h)	Cell viability in kinase inhibitor library screening, A375 GP, 1μΜ ([3]; A375 GP, 1μΜ, 72 h)	Cell viability in kinase inhibitor library screening, A375 GP, 10μΜ ([3]; A375 GP, 10μΜ, 72 h)	Cell viability in kinase inhibitor library screening, A375 XP, 1μΜ ([4]; A375 XP, 1μΜ, 72 h)	Cell viability in kinase inhibitor library screening, A375 XP, 10μΜ ([4]; A375 XP, 10μΜ, 72 h)	Cell viability in kinase inhibitor library screening, IGR37 Parental, 1μΜ (IGR37 cells (parental); [9])	Cell viability in kinase inhibitor library screening, IGR37 Parental, 10μΜ (IGR37 cells (parental); [10])	Cell viability in kinase inhibitor library screening, IGR37 GP, 10μΜ ([5]; IGR37 GP, 10μΜ, 72 h) [%]	Cell viability in kinase inhibitor library screening, IGR37 GP, 1μΜ ([5]; IGR37 GP, 1μΜ, 72 h, in %)	Cell viability in kinase inhibitor library screening, IGR37 XP, 10μΜ ([6]; IGR37 XP, 10μΜ, 72 h) [%]	Cell viability in kinase inhibitor library screening, IGR37 XP, 1μΜ ([6]; IGR37 XP, 1μΜ, 72 h, in %)	other results
CC[C@@H]1C(=O)N(C)c2cnc(Nc3ccc(C(=O)N[C@H]4CC[C@H](N5CCN(CC6CC6)CC5)CC4)cc3OC)nc2N1C(C)C [BI6727 (Volasertib)]	63.2	1.3	26.5	0.363	9.9	0.4	29.8	21.7	22.8	28.0	37.1	16.8	36.2	43.0	8.8	75.9	2.7	65.8	
CC[C@@H]1C(=O)N(C)c2cnc(Nc3ccc(C(=O)NC4CCN(C)CC4)cc3OC)nc2N1C1CCCC1 [BI 2536]	77.3	1.6	52.3	0.263	29.2	-0.237	30.1	31.0	31.1	15.5	42.2	8.5	71.6	1.3	2.8	82.9	1.5	76.3	
COC(=O)c1ccc2c(c1)NC(=O)/C2=C(\Nc1ccc(N(C)C(=O)CN2CCN(C)CC2)cc1)c1ccccc1 [BIBF1120 (Vargatef)]																			cell viability (kinase inhibitor library screening) (501Mel cells (parental); 501Mel Parental, 1μΜ, in %): 103.8; cell viability (kinase inhibitor library screening) (501Mel cells (parental); 501Mel Parental, 10μΜ, in %): 0.6; cell viability (kinase inhibitor library screening) ([1]; 501Mel GP, 1μΜ, in %): 90.5; cell viability (kinase inhibitor library screening) ([1]; 501Mel GP, 10μΜ, in %): -0.1; cell viability (kinase inhibitor library screening) ([2]; 501Mel XP, 1μΜ, in %): 90.7; cell viability (kinase inhibitor library screening) ([2]; 501Mel XP, 10μΜ, in %): -0.28; cell viability (kinase inhibitor library screening) (A375 cells (parental); A375 Parental, 1μΜ, in %): 104.6; cell viability (kinase inhibitor library screening) (A375 cells (parental); A375 Parental, 10μΜ, in %): 2.3; cell viability (kinase inhibitor library screening) ([3]; A375 GP, 10μΜ, in %): 1.1; cell viability (kinase inhibitor library screening) ([4]; A375 XP, 1μΜ, in %): 103.7; cell viability (kinase inhibitor library screening) ([4]; A375 XP, 10μΜ, in %): 1.7; cell viability (kinase inhibitor library screening) (IGR37 cells (parental); IGR37 Parental, 10μΜ, in %): 0.645; cell viability (kinase inhibitor library screening) ([5]; IGR37 GP, 1μΜ, in %): 97.0; cell viability (kinase inhibitor library screening) ([5]; IGR37 GP, 10μΜ, in %): 1.4; cell viability (kinase inhibitor library screening) ([6]; IGR37 XP, 1μΜ, in %): 100.3; cell viability (kinase inhibitor library screening) ([6]; IGR37 XP, 10μΜ, in %): 1.9
Cc1ccc(-n2nc(C(C)(C)C)cc2NC(=O)Nc2ccc(OCCN3CCOCC3)c3ccccc23)cc1 [BIRB 796 (Doramapimod)]	96.5	84.9	105.5	94.6	98.8	86.9	86.4	99.9	103.9	76.2		85.3		97.2	78.5	89.9	71.3	94.7	
CN(C)Cc1cccc(N/C(=C2\C(=O)Nc3cc(C(N)=O)ccc32)c2ccccc2)c1 [BIX 02188]																			viability at 1 µM (501Mel cells (parental); Homo sapiens, 72 h, read-out: cell viability, 501Mel Parental, 1μΜ): 95.5%; viability at 10 µM (501Mel cells (parental); Homo sapiens, 72 h, read-out: cell viability, 501Mel Parental, 10μΜ): 91.7%; viability at 1 µM ([1]; Homo sapiens, 72 h, read-out: cell viability, 501Mel GP, 1μΜ): 104%; viability at 10 µM ([1]; Homo sapiens, 72 h, read-out: cell viability, 501Mel GP, 10μΜ): 96.3%; viability at 1 µM ([2]; Homo sapiens, 72 h, read-out: cell viability, 501Mel XP, 1μΜ): 96.7%; viability at 10 µM ([2]; Homo sapiens, 72 h, read-out: cell viability, 501Mel XP, 10μΜ): 86.6%; viability at 1 µM (A375 cells (parental); Homo sapiens, A-375, 72 h, read-out: cell viability, A375 Parental, 1μΜ): 103%; viability at 10 µM (A375 cells (parental); Homo sapiens, A-375, 72 h, read-out: cell viability, A375 Parental, 10μΜ): 95.5%; viability at 1 µM ([3]; Homo sapiens, A-375, 72 h, read-out: cell viability, A375 GP, 1μΜ): 103%; viability at 10 µM ([3]; Homo sapiens, A-375, 72 h, read-out: cell viability, A375 GP, 10μΜ): 85.4%; viability at 1 µM ([4]; Homo sapiens, A-375, 72 h, read-out: cell viability, A375 XP, 1μΜ): 103%; viability at 10 µM ([4]; Homo sapiens, A-375, 72 h, read-out: cell viability, A375 XP, 10μΜ): 98.5%; viability at 1 µM (IGR37 cells (parental); Homo sapiens, IGR-37, 72 h, read-out: cell viability, IGR37 Parental, 1μΜ): 99.2%; viability at 10 µM (IGR37 cells (parental); Homo sapiens, IGR-37, 72 h, read-out: cell viability, IGR37 Parental, 10μΜ): 109%; viability at 1 µM ([5]; Homo sapiens, IGR-37, 72 h, read-out: cell viability, IGR37 GP, 1μΜ): 91%; viability at 10 µM ([5]; Homo sapiens, IGR-37, 72 h, read-out: cell viability, IGR37 GP, 10μΜ): 93.3%; viability at 1 µM ([6]; Homo sapiens, IGR-37, 72 h, read-out: cell viability, IGR37 XP, 1μΜ): 107%; viability at 10 µM ([6]; Homo sapiens, IGR-37, 72 h, read-out: cell viability, IGR37 XP, 10μΜ): 71.5%
CN(C)Cc1cccc(N/C(=C2\C(=O)Nc3cc(C(=O)N(C)C)ccc32)c2ccccc2)c1 [BIX 02189]																			cell viability, 501Mel Parental, 1μΜ (501Mel cells (parental); [7]): 89.4; cell viability, 501Mel Parental, 10μΜ (501Mel cells (parental); [8]): 89.0; cell viability, 501Mel GP, 10μΜ ([1]; 501Mel GP, 10μΜ, 72 h, in %): 90.2; cell viability, 501Mel XP, 1μΜ ([2]; 501Mel XP, 1μΜ, 72 h, in %): 98.8; cell viability, 501Mel XP, 10μΜ ([2]; 501Mel XP, 10μΜ, 72 h, in %): 82.6; cell viability, A375 Parental, 10μΜ (A375 cells (parental); A375 Parental, 10μΜ, 72 h, in %): 86.5; cell viability, A375 GP, 1μΜ ([3]; A375 GP, 1μΜ, 72 h, in %): 99.5; cell viability, A375 GP, 10μΜ ([3]; A375 GP, 10μΜ, 72 h, in %): 79.8; cell viability, A375 XP, 1μΜ ([4]; A375 XP, 1μΜ, 72 h, in %): 99.2; cell viability, A375 XP, 10μΜ ([4]; A375 XP, 10μΜ, 72 h, in %): 88.6; cell viability, IGR37 Parental, 1μΜ (IGR37 cells (parental); [9]): 100.1; cell viability, IGR37 GP, 10μΜ ([5]; IGR37 GP, 10μΜ, 72 h): 85.5%; cell viability, IGR37 GP, 1μΜ ([5]; IGR37 GP, 1μΜ, 72 h, in %): 92.6; cell viability, IGR37 XP, 10μΜ ([6]; IGR37 XP, 10μΜ, 72 h): 54.9%; cell viability, IGR37 XP, 1μΜ ([6]; IGR37 XP, 1μΜ, 72 h, in %): 96.6
Nc1cc(C(F)(F)F)c(-c2cc(N3CCOCC3)nc(N3CCOCC3)n2)cn1 [BKM120 (Buparlisib)]	71.1	10.8	60.8	9.6	54.8	3.6	9.8	67.0	59.6	7.7	70.4	10.0	91.7	30.3	20.9	82.3	7.4	78.7	
